Literature values in patent US20250231185A1, “Coronavirus T Cell Epitopes, Megapools and Uses Thereof” (La Jolla Institute for Immunology, priority 2021, published 2025).

Test system: CD8+ T cells
Conditions: CD8RE megapool peptides (non-spike SARS-CoV-2 antigens); dominant epitope Yes/No; cited from earlier work

Row | Substance | Dominant
1 | 2912 (AVILRGHLR) [compound 2912] | Yes (more dominant epitopes are defined by being recognized by 3 or more donors/different studies)
2 | 2913 (ATSRTLSYY) [compound 2913] | Yes (more dominant epitopes are defined by being recognized by 3 or more donors/different studies)
3 | 2914 (ATSRTLSYYK) [compound 2914] | Yes (more dominant epitopes are defined by being recognized by 3 or more donors/different studies)
4 | 2915 (RYRIGNYKL) [compound 2915] | Yes (more dominant epitopes are defined by being recognized by 3 or more donors/different studies)
5 | 2917 (NTASWFTAL) [compound 2917] | Yes (more dominant epitopes are defined by being recognized by 3 or more donors/different studies)
6 | 2918 (KFPRGQGVPI) [compound 2918] | Yes (more dominant epitopes are defined by being recognized by 3 or more donors/different studies)
7 | 2919 (FPRGQGVPI) [compound 2919] | Yes (more dominant epitopes are defined by being recognized by 3 or more donors/different studies)
8 | 2920 (YYRRATRRIR) [compound 2920] | Yes (more dominant epitopes are defined by being recognized by 3 or more donors/different studies)
9 | 2921 (RIRGGDGKMK) [compound 2921] | Yes (more dominant epitopes are defined by being recognized by 3 or more donors/different studies)
10 | 2922 (KMKDLSPRW) [compound 2922] | Yes (more dominant epitopes are defined by being recognized by 3 or more donors/different studies)
11 | 2923 (LSPRWYFYYL) [compound 2923] | Yes (more dominant epitopes are defined by being recognized by 3 or more donors/different studies)
12 | 2924 (SPRWYFYYL) [compound 2924] | Yes (more dominant epitopes are defined by being recognized by 3 or more donors/different studies)
13 | 2925 (GTGPEAGLPY) [compound 2925] | Yes (more dominant epitopes are defined by being recognized by 3 or more donors/different studies)
14 | 2926 (ATEGALNTPK) [compound 2926] | Yes (more dominant epitopes are defined by being recognized by 3 or more donors/different studies)
15 | 2927 (NPANNAAIVL) [compound 2927] | Yes (more dominant epitopes are defined by being recognized by 3 or more donors/different studies)
16 | 2928 (VLQLPQGTTL) [compound 2928] | Yes (more dominant epitopes are defined by being recognized by 3 or more donors/different studies)
17 | 2929 (LALLLLDRL) [compound 2929] | Yes (more dominant epitopes are defined by being recognized by 3 or more donors/different studies)
18 | 2930 (LLLLDRLNQL) [compound 2930] | Yes (more dominant epitopes are defined by being recognized by 3 or more donors/different studies)
19 | 2931 (LLLDRLNQL) [compound 2931] | Yes (more dominant epitopes are defined by being recognized by 3 or more donors/different studies)
20 | 2932 (QQQQGQTVTK) [compound 2932] | Yes (more dominant epitopes are defined by being recognized by 3 or more donors/different studies)
21 | 2933 (KPRQKRTAT) [compound 2933] | Yes (more dominant epitopes are defined by being recognized by 3 or more donors/different studies)
22 | 2936 (AQFAPSASAF) [compound 2936] | Yes (more dominant epitopes are defined by being recognized by 3 or more donors/different studies)

Row | Substance | Dominant
23 | 2937 (ASAFFGMSR) [compound 2937] | Yes (more dominant epitopes are defined by being recognized by 3 or more donors/different studies)
24 | 2938 (GMSRIGMEV) [compound 2938] | Yes (more dominant epitopes are defined by being recognized by 3 or more donors/different studies)
25 | 2939 (MEVTPSGTW) [compound 2939] | Yes (more dominant epitopes are defined by being recognized by 3 or more donors/different studies)
26 | 2940 (MEVTPSGTWL) [compound 2940] | Yes (more dominant epitopes are defined by being recognized by 3 or more donors/different studies)
27 | 2941 (ILLNKHIDA) [compound 2941] | Yes (more dominant epitopes are defined by being recognized by 3 or more donors/different studies)
28 | 2944 (LPAADLDDF) [compound 2944] | Yes (more dominant epitopes are defined by being recognized by 3 or more donors/different studies)
29 | 2945 (FSKQLQQSM) [compound 2945] | Yes (more dominant epitopes are defined by being recognized by 3 or more donors/different studies)
30 | 2946 (VLSEARQHL) [compound 2946] | Yes (more dominant epitopes are defined by being recognized by 3 or more donors/different studies)
31 | 2947 (TVLSFCAFAV) [compound 2947] | Yes (more dominant epitopes are defined by being recognized by 3 or more donors/different studies)
32 | 2948 (DLKGKYVQI) [compound 2948] | Yes (more dominant epitopes are defined by being recognized by 3 or more donors/different studies)
33 | 2949 (YTMADLVYAL) [compound 2949] | Yes (more dominant epitopes are defined by being recognized by 3 or more donors/different studies)
34 | 2950 (TMADLVYAL) [compound 2950] | Yes (more dominant epitopes are defined by being recognized by 3 or more donors/different studies)
35 | 2951 (LLMPILTLT) [compound 2951] | Yes (more dominant epitopes are defined by being recognized by 3 or more donors/different studies)
36 | 2952 (KLFDRYFKY) [compound 2952] | Yes (more dominant epitopes are defined by being recognized by 3 or more donors/different studies)
37 | 2953 (FVDGVPFVV) [compound 2953] | Yes (more dominant epitopes are defined by being recognized by 3 or more donors/different studies)
38 | 2954 (ISDYDYYRY) [compound 2954] | Yes (more dominant epitopes are defined by being recognized by 3 or more donors/different studies)
39 | 2955 (RQLLFVVEV) [compound 2955] | Yes (more dominant epitopes are defined by being recognized by 3 or more donors/different studies)
40 | 2956 (VVDKYFDCY) [compound 2956] | Yes (more dominant epitopes are defined by being recognized by 3 or more donors/different studies)
41 | 2957 (RLYYDSMSY) [compound 2957] | Yes (more dominant epitopes are defined by being recognized by 3 or more donors/different studies)
42 | 2958 (MVMCGGSLYV) [compound 2958] | Yes (more dominant epitopes are defined by being recognized by 3 or more donors/different studies)
43 | 2959 (DTDFVNEFY) [compound 2959] | Yes (more dominant epitopes are defined by being recognized by 3 or more donors/different studies)
44 | 2960 (FYAYLRKHF) [compound 2960] | Yes (more dominant epitopes are defined by being recognized by 3 or more donors/different studies)

Row | Substance | Dominant
45 | 2961 (RILGAGCFV) [compound 2961] | Yes (more dominant epitopes are defined by being recognized by 3 or more donors/different studies)
46 | 2963 (LYLQYIRKL) [compound 2963] | Yes (more dominant epitopes are defined by being recognized by 3 or more donors/different studies)
47 | 2964 (VLQAVGACV) [compound 2964] | Yes (more dominant epitopes are defined by being recognized by 3 or more donors/different studies)
48 | 2965 (LVLSVNPYV) [compound 2965] | Yes (more dominant epitopes are defined by being recognized by 3 or more donors/different studies)
49 | 2968 (VVYRGTTTY) [compound 2968] | Yes (more dominant epitopes are defined by being recognized by 3 or more donors/different studies)
50 | 2969 (VVYRGTTTYK) [compound 2969] | Yes (more dominant epitopes are defined by being recognized by 3 or more donors/different studies)
51 | 2970 (VYRGTTTYKL) [compound 2970] | Yes (more dominant epitopes are defined by being recognized by 3 or more donors/different studies)
52 | 2971 (KLNVGDYFV) [compound 2971] | Yes (more dominant epitopes are defined by being recognized by 3 or more donors/different studies)
53 | 2972 (SSNVANYQK) [compound 2972] | Yes (more dominant epitopes are defined by being recognized by 3 or more donors/different studies)
54 | 2973 (VYIGDPAQL) [compound 2973] | Yes (more dominant epitopes are defined by being recognized by 3 or more donors/different studies)
55 | 2974 (IVDTVSALV) [compound 2974] | Yes (more dominant epitopes are defined by being recognized by 3 or more donors/different studies)
56 | 2976 (VLWAHGFEL) [compound 2976] | Yes (more dominant epitopes are defined by being recognized by 3 or more donors/different studies)
57 | 2977 (TYACWHHSI) [compound 2977] | Yes (more dominant epitopes are defined by being recognized by 3 or more donors/different studies)
58 | 2978 (AIMTRCLAV) [compound 2978] | Yes (more dominant epitopes are defined by being recognized by 3 or more donors/different studies)
59 | 2979 (IEYPIIGDEL) [compound 2979] | Yes (more dominant epitopes are defined by being recognized by 3 or more donors/different studies)
60 | 2980 (ALLADKFPV) [compound 2980] | Yes (more dominant epitopes are defined by being recognized by 3 or more donors/different studies)
61 | 2981 (SYATHSDKF) [compound 2981] | Yes (more dominant epitopes are defined by being recognized by 3 or more donors/different studies)
62 | 2983 (MMISAGFSL) [compound 2983] | Yes (more dominant epitopes are defined by being recognized by 3 or more donors/different studies)
63 | 2984 (KQFDTYNLW) [compound 2984] | Yes (more dominant epitopes are defined by being recognized by 3 or more donors/different studies)
64 | 2985 (NLWNTFTRL) [compound 2985] | Yes (more dominant epitopes are defined by being recognized by 3 or more donors/different studies)
65 | 2986 (KVDGVDVEL) [compound 2986] | Yes (more dominant epitopes are defined by being recognized by 3 or more donors/different studies)
